Results on five molecules are retold here after ChEMBL document CHEMBL1201862, “PubChem BioAssay data set” (2004).

Some test systems named below: A498; CCRF-CEM; EKVX; HCC 2998; HCT-15; HL-60; HOP-92; Hs-578T; K562; KM12; MDA-MB-435; NCI-H522; NCI/ADR-RES; OVCAR-5; OVCAR-8; SK-MEL-28; SW-620; T47D; U-251; UACC-62.
Common to all, as to assay: inhibition of tumour cell growth, NCI panel, 48 h

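How tested: cells in 96-well plates exposed to compound for 48 hours at five concentrations. The concentration for 50% growth inhibition is given as GI50.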 Activity calls are given as the source filed them. No stated cut-off is given here; in the data, active = GI50 up to about 1.1 µM and inactive = higher.

Turning to `COC(=O)C1=C(C)NC2=C(C(=O)c3ccccc32)C1c1cn(-c2ccccc2)nc1-c1ccccc1` (stereo not given), the GI50 in the experiment with A498 is > 65.9 µM (inactive); with CCRF-CEM, 23.4 µM (inactive); with EKVX it was > 42.9 µM (inactive); with HCC 2998 it was 13.6 µM (inactive); in the experiment with HCT-15, 30.1 µM; in the experiment with HL-60, 23.2 µM (inactive). Also, the GI50 in the experiment with HOP-92 is 18.3 µM (inactive); in the experiment on Hs-578T, > 100 µM (inactive); in the experiment with K562 it was 16.3 µM (inactive); in the experiment on KM12, 7.93 µM (inactive); in the experiment with MDA-MB-435, 16.6 µM (inactive); with NCI-H522 it was > 53.5 µM (inactive). Moreover, the GI50 is 70.6 µM (inactive) in the experiment on NCI/ADR-RES; > 100 µM (inactive) with OVCAR-5; > 100 µM (inactive) in the experiment on OVCAR-8; 96.8 µM (inactive) in the experiment on SK-MEL-28; > 100 µM (inactive) in the experiment with SW-620; 20.3 µM (inactive) in the experiment on T47D. The GI50 in the experiment with U-251 was 15.5 µM (inactive); in the experiment on UACC-62, > 42.6 µM (inactive).
For `O=C(ON=c1c2ccccc2ccc2ccccc12)c1ccccc1`, the GI50 is 22.1 µM (inactive) in the experiment with A498; 18.8 µM (inactive) in the experiment with CCRF-CEM; 35.7 µM (inactive) in the experiment with EKVX; 34 µM (inactive) with HCC 2998; 29.7 µM with HCT-15; 6.28 µM (inactive) in the experiment with HL-60. The GI50 with HOP-92 is 26.2 µM (inactive); in the experiment on Hs-578T, 22.2 µM (inactive); in the experiment on K562, 8.81 µM (inactive); with KM12, 11.8 µM (inactive); with MDA-MB-435, 20.7 µM (inactive); in the experiment with NCI-H522, 20.7 µM (inactive). The GI50 with NCI/ADR-RES was 21.2 µM (inactive); in the experiment with OVCAR-5, 60.8 µM (inactive); in the experiment on OVCAR-8 it was 27.4 µM (inactive); with SK-MEL-28 it was 29.8 µM (inactive); with SW-620, 18.1 µM (inactive); in the experiment with T47D, 30.3 µM (inactive). Moreover, the GI50 with U-251 was 19.5 µM (inactive); with UACC-62 it was 16.2 µM (inactive).
Regarding `S=C(Nc1cccc(C2(N3CCCCC3)CCCCC2)c1)Nc1cccc(C2(N3CCCCC3)CCCCC2)c1`, the GI50 in the experiment on A498 was 18.9 µM (inactive); in the experiment on CCRF-CEM, 13.6 µM (inactive); in the experiment on EKVX, 38 µM (inactive); in the experiment on HCC 2998 it was 2.43 µM (inactive); in the experiment on HCT-15, 32.2 µM; in the experiment with HL-60, 14.9 µM (inactive). Further, the GI50 in the experiment with HOP-92 is 10.3 µM (inactive); in the experiment with Hs-578T it was 38.9 µM (inactive); with K562 it was 11.2 µM (inactive); in the experiment on KM12, 16 µM (inactive); in the experiment with MDA-MB-435 it was 16 µM (inactive); in the experiment on NCI-H522, 20.4 µM (inactive). The GI50 in the experiment on NCI/ADR-RES is > 100 µM (inactive); in the experiment with OVCAR-5, 66.4 µM (inactive); in the experiment with OVCAR-8 it was 24.3 µM (inactive); with SK-MEL-28, 17.9 µM (inactive); in the experiment on SW-620, 37.8 µM (inactive); with T47D it was 19.5 µM (inactive). For the same molecule, the GI50 in the experiment on U-251 is 23.4 µM (inactive); with UACC-62 it was 18.9 µM (inactive).
In the case of `OC(c1ccc(F)cc1)(c1ccc(F)cc1)C1CC1`, the GI50 is 29.2 µM (inactive) in the experiment on A498; 24.8 µM (inactive) in the experiment on CCRF-CEM; 29.2 µM (inactive) with EKVX; 20.5 µM (inactive) in the experiment on HCC 2998; 23 µM in the experiment on HCT-15; 21.3 µM (inactive) in the experiment with HL-60. In addition, the GI50 in the experiment on HOP-92 is 33.8 µM (inactive); in the experiment with Hs-578T it was 26.9 µM (inactive); in the experiment on K562, 31.4 µM (inactive); in the experiment with KM12, 26.7 µM (inactive); in the experiment with MDA-MB-435, 23 µM (inactive); in the experiment with NCI-H522, 21.2 µM (inactive). The GI50 with NCI/ADR-RES was 21.3 µM (inactive); with OVCAR-5, 37.3 µM (inactive); in the experiment with OVCAR-8, 37.2 µM (inactive); in the experiment on SK-MEL-28, 30 µM (inactive); with SW-620, 25.6 µM (inactive); in the experiment with T47D it was 38 µM (inactive). Moreover, the GI50 with U-251 was 24 µM (inactive); in the experiment on UACC-62, 23.9 µM (inactive).
Regarding `Cc1cnc(-n2c(C)nc3cc(Cl)ccc3c2=O)s1`, the GI50 in the experiment with A498 is 20.4 µM (inactive); with CCRF-CEM, 31.5 µM (inactive); with EKVX, 11.1 µM (inactive); in the experiment on HCC 2998, 26.5 µM (inactive); in the experiment with HCT-15, 26.2 µM; with HL-60, 26 µM (inactive). Besides, the GI50 is 47.6 µM (inactive) in the experiment with HOP-92; 74.6 µM (inactive) in the experiment with Hs-578T; 31.1 µM (inactive) in the experiment with K562; 21.8 µM (inactive) in the experiment on KM12; 28.1 µM (inactive) in the experiment with MDA-MB-435; 22 µM (inactive) with NCI-H522. Besides, the GI50 in the experiment with NCI/ADR-RES is 28 µM (inactive); in the experiment on OVCAR-5, 56.4 µM (inactive); with OVCAR-8 it was 45.7 µM (inactive); in the experiment with SK-MEL-28, 49.7 µM (inactive); in the experiment on SW-620, 43 µM (inactive); in the experiment with T47D it was 21.3 µM (inactive). In addition, the GI50 in the experiment with U-251 was 30.5 µM (inactive); with UACC-62, 23.2 µM (inactive).
